Test results from patent US6841533B1, “Conformationally constrained backbone cyclized interleukin-6 antagonists” (Peptor Limited, priority 1995, dated 2005).
Numbered stars: 1 amine (or outer) side, 2 acyl side, 3 side chain; on linkers, the order of the positions; unused ones are H or OH. Bridge positions count the residues as written; N and C are the ends. Square brackets hold non-standard residues; d marks the D form. Peptide text beside a SMILES is read from it. ξ: configuration not given here. Ala(Nα-(CH2)3CO) = C[C@@H](C(=O)[*:2])N(CCCC(=O)[*:3])[*:1]; Ala(Nα-(CH2)3NH) = C[C@@H](C(=O)[*:2])N(CCCN[*:3])[*:1]; Gly(Nα-(CH2)3CO) = O=C(CN(CCCC(=O)[*:3])[*:1])[*:2]; N(2-Aminoethyl)Gly = O=C(CN(CCN[*:3])[*:1])[*:2]; ξY = NC(Cc1ccc(O)cc1)C(=O)O

Columns and labels:
B16.F10.9 melanoma cells = conditions: for B16F10.9 active at: theoretical crude concentration, MPS peptides; for concentration that fully blocks IL-6 activity: 200 ng/ml IL-6 and 125 ng/ml sIL-6R, three days, FIG. 2
Source text: The F10.9 sub-line of B16 (murine melanoma) expresses gp130 but not IL-6R. Addition of human IL-6 and human IL-6R, or a chimera of IL-6/IL-6R results in differentiation which is associated with growth arrest of the cells. Inhibition of IL-6 results in continued growth. Since the end point of this assay is cell growth rather than cell death, this assay system was used primarily in order to differentiate between suspected toxic effects observed on B9 or T1165 cells, and true inhibition of IL-6 activity.
Evaluation of the results in this assay is possible using two methods. One method uses vital dyes for monitoring cell growth. The second method comprises visual observation of the cell morphology and establishing a cut off point based on the following observations:
Cells which are not treated with IL-6 create a monolayer that covers almost all the surface area. Treatment with IL-6 causes growth arrest and a morphological change: the cells become very narrow and elongated as compared to the more spread out shape of the non-treated cells.
Peptides were added to B16.F10.9 melanoma cells in the presence of 200 ng/ml IL-6 and 125 ng/ml sIL-6R. Incubation for three days.

[1] = tested on: TF1 cells maintained with IL-6; experiment: Bioassay using TF1 cells maintained with IL-6; type: cell-based, human; parameters: TF1: unit not given here; conditions: for TF1: MPS crude peptides, Table 6
Source text: TF1 cells (human erythroleukemia) cells require IL-6 for growth and thus inhibition of IL-6 bioactivity results in cell death, similar to T1165 cells. The origin of all relevant molecules is human.
The problem associated with toxicity (false positive results), could be overcome in the TF1 based assay since these cells can be induced by additional cytokines which are unrelated to IL-6 (not using the gp130 signal transducer). It, is possible to induce the cells to grow with IL-6 and with additional cytokine e.g. GM-CSF. Specific inhibition of IL-6 bioactivity is therefore expected to register only in cells induced by IL-6 and not with GM-CSF. […] Assay procedure is based on the procedure described in Fourcin et al. (ibid). The amount of viable cells at the end of the assay is determined by staining the cells with WST reagent as well as by measuring thymidine corporation (^3H-T).
The libraries were screened for binding of soluble IL-6. The information obtained was used for synthesis of backbone cyclic peptides in MPS format. Analyses for biological activity were performed on the TF1 human cell line.
Since the endpoint of the bioassay used is cell death, there is a need to check the specificity of the killing action, and to examine whether the cell death is due to inhibition of the IL-6 signaling pathway. The peptide analogs were therefore analyzed for their ability to induce non-specific cell death when the same cells were maintained with GM-CSF (instead of IL-6) as growth factor.

A375 cells = experiment: Bioassay using A375 cells, cytokines other than IL-6; type: cell-based, human; conditions: maximal inhibitory activity of IL-6 on A375 cells = 100%
Source text: The A375 are human melanoma cells. IL-6 induces differentiation of A375 cells which is associated with growth arrest similar to the phenomenon observed with the B16F10.9 murine melanoma cells. Thus, inhibition of IL-6 results in continued growth of the cells which is easily quantifiable. In such case toxicity of peptides would register as a false negative rather than false positive. This conditions is preferable during screening process. Second, since these are human cells, the molecules involved in the bio-response, i.e. IL-6, IL-6R and gp130 are all of human origin thus ensuring authenticity of the tested peptide bioactivity. Another advantage of the A375 cells is their ability to be induced by other cytokines that share the gp130 signal transducer, i.e. leukemia inhibitory factor (LIF) and oncostatine M (OSM). […] The availability of this assay system, allows us to test, the specificity of our IL-6 inhibitory peptides vs. other cytokines of the family, in an array of assays all using a single cell line. Assay performance is described in Savino et al. (ibid).

[2] = tested on: IL-6 mediated acute-phase response; experiment: IL-6 mediated acute-phase response (turpentine model); type: in vivo, mice; conditions: mice, turpentine, 1 or 10 mg/kg of peptide
Source text: The objective was to establish a simple first-line in-vivo model, for testing the activity of IL-6 inhibitors. The turpentine model was chosen based on the principal role that IL-6 plays in this inflammatory response.
Systemic and localized inflammation elicit a general reaction in the organism, known as the acute phase response, which includes fever, loss of body weight, hypoglycemia, and changes in the serum levels of several plasma proteins produced by the liver. IL-6 is an important mediator of the acute-phase reaction (see Heinrich et.al., Biochemistry J. 1 265:621, 1990 for a comprehensive review), together with IL-1 and TNF-α. It has been shown previously that sterile tissue damage caused by injection of turpentine induces an acute-phase reaction, and that IL-6 is an essential mediator of this response (Rokita et.al., Cytokine 5:454, 1993).
IL-6 knock-out (-/-) and matched wild-type (C57/Black; CB) mice were used. Sterile tissue damage was induced by subcutaneous injection of turpentine, 0.1 ml, into both hind limbs. IL-6 was determined in the serum by ELISA (QuantikineM, R&D). For liver acute-phase proteins, Fibrinogen was determined in citrated plasma, by the calcium method.
PTR 5045 (SEQ ID NO:75) was tested in this model in compare to the non-relevant control peptide PTR 4041 (SEQ ID NO:33) (Lys-GlyC2-Leu-Ile-Gln-Leu-Phe-GlyN3-Lys-Lys-NH2).

[3] = target: leukocyte inhibitory factor receptor (LIF-R); experiment: cell-based or functional assay

| Molecule | B16F10.9 active at (B16.F10.9 melanoma cells) | TF1 [1] | also measured |
| --- | --- | --- | --- |
| C[C@@H](C(N)=O)N1CCCNC(=O)CCCN(C(=O)[C@@H](Cc2ccccc2)NC(=O)[C@H](CCCNC(=N)N)NC(=O)[C@H](CCCCN)NC(=O)[C@H](CCCNC(=N)N)NC(=O)[C@H](N)CCCCN)[C@@H](C)C(=O)N[C@@H](CCCCN)C(=O)N[C@@H](CCCNC(=N)N)C(=O)N[C@@H](Cc2ccc(O)cc2)C1=O [(D)Lys-Arg-Lys-Arg-(D)Phe-AlaC3-Lys-Arg-Tyr-AlaN3] (H-[dK]RKR[dF][Ala(Nα-(CH2)3CO)]KRY[Ala(Nα-(CH2)3NH)]-NH2; lactam 6-10) | 62 µM | 55 |  |
| CC(C)C[C@@H]1NC(=O)[C@H](C)N(C(=O)[C@H](Cc2ccccc2)NC(=O)[C@@H](CCCNC(=N)N)NC(=O)[C@H](CCCCN)NC(=O)[C@H](CCCNC(=N)N)NC(=O)[C@@H](N)CCCCN)CCCC(=O)NCCCN([C@@H](C)C(N)=O)C(=O)C(Cc2ccc(O)cc2)NC(=O)[C@H](CCCNC(=N)N)NC1=O (stereo partly drawn) [Lys-Arg-Lys-(D)Arg-Phe-AlaC3-Leu-Arg-BTyr-AlaN3] (H-KRK[dR]F[Ala(Nα-(CH2)3CO)]LR[ξY][Ala(Nα-(CH2)3NH)]-NH2; lactam 6-10) | <12 µM | 85 |  |
| C[C@@H](C(N)=O)N1CCCNC(=O)CCCN(C(=O)[C@H](Cc2ccccc2)NC(=O)[C@H](CCCNC(=N)N)NC(=O)[C@H](CCCCN)NC(=O)[C@H](CCCNC(=N)N)NC(=O)[C@@H](N)CCCCN)[C@@H](C)C(=O)N[C@@H](CCCCN)C(=O)N[C@H](CCCNC(=N)N)C(=O)NC(Cc2ccc(O)cc2)C1=O (stereo partly drawn) [Lys-Arg-Lys-Arg-Phe-AlaC3-Lys-(D)Arg-BTyr-AlaN3] (H-KRKRF[Ala(Nα-(CH2)3CO)]K[dR][ξY][Ala(Nα-(CH2)3NH)]-NH2; lactam 6-10) | 62 µM | 21 |  |
| CC(C)C[C@@H]1NC(=O)CN(C(=O)[C@H](Cc2ccccc2)NC(=O)[C@H](CCCNC(=N)N)NC(=O)[C@H](CC(C)C)NC(=O)[C@H](CCCNC(=N)N)NC(=O)[C@@H](N)Cc2ccc(O)cc2)CCCC(=O)NCCN(CC(N)=O)C(=O)[C@H](Cc2ccc(O)cc2)NC(=O)[C@H](CCCNC(=N)N)NC1=O [PTR 5005, Tyr-Arg-Leu-Arg-Phe-GlyC3-Leu-Arg-Tyr-GlyN2] (H-YRLRF[Gly(Nα-(CH2)3CO)]LRY[N(2-Aminoethyl)Gly]-NH2; lactam 6-10) |  |  | IC50 in the B16F10.9 cell assay (B16.F10.9 melanoma cells): around 10 μ/ml; activity on TF1 cells ([1]; in words): appears to be active |
| CC(C)C[C@@H](NC(=O)[C@H](CCCNC(=N)N)NC(=O)[C@H](N)CCCCN)C(=O)N[C@H](CCCNC(=N)N)C(=O)N[C@H](Cc1ccccc1)C(=O)N1CCCC(=O)NCCCN([C@@H](C)C(N)=O)C(=O)[C@@H](Cc2ccc(O)cc2)NC(=O)[C@H](CCCNC(=N)N)NC(=O)[C@@H](CC(C)C)NC(=O)[C@@H]1C [PTR 5041, (D)Lys-Arg-(D) Leu-(D) Arg-(D)Phe-AlaC3-(D)Leu-Arg-(D)Tyr-AlaN3-NH2] (H-[dK]R[dL][dR][dF][Ala(Nα-(CH2)3CO)][dL]R[dY][Ala(Nα-(CH2)3NH)]-NH2; lactam 6-10) | 47 µM | 92 | concentration that fully blocks IL-6 activity (B16.F10.9 melanoma cells): about 250 nM |
| CC(C)C[C@@H]1NC(=O)[C@H](C)N(C(=O)[C@@H](Cc2ccccc2)NC(=O)[C@@H](CCCNC(=N)N)NC(=O)[C@H](CCCCN)NC(=O)[C@H](CCCNC(=N)N)NC(=O)[C@@H](N)Cc2c[nH]c3ccccc23)CCCC(=O)NCCCN([C@@H](C)C(N)=O)C(=O)C(Cc2ccc(O)cc2)NC(=O)[C@H](CCCNC(=N)N)NC1=O (stereo partly drawn) [Trp-Arg-Lys-(D)Arg-(D)Phe-AlaC3-Leu-Arg-BTyr-AlaN3] (H-WRK[dR][dF][Ala(Nα-(CH2)3CO)]LR[ξY][Ala(Nα-(CH2)3NH)]-NH2; lactam 6-10) | <12 µM | 41 |  |
| CC(C)C[C@@H]1NC(=O)[C@H](C)N(C(=O)[C@H](Cc2ccccc2)NC(=O)[C@@H](CCCNC(=N)N)NC(=O)[C@H](CCCCN)NC(=O)[C@H](CCCNC(=N)N)NC(=O)[C@@H](N)Cc2c[nH]c3ccccc23)CCCC(=O)NCCCN([C@@H](C)C(N)=O)C(=O)C(Cc2ccc(O)cc2)NC(=O)[C@H](CCCNC(=N)N)NC1=O (stereo partly drawn) [Trp-Arg-Lys-(D)Arg-Phe-AlaC3-Leu-Arg-BTyr-AlaN3] (H-WRK[dR]F[Ala(Nα-(CH2)3CO)]LR[ξY][Ala(Nα-(CH2)3NH)]-NH2; lactam 6-10; C-terminus assumed) | <12 µM | 32 |  |
| CC(C)C[C@@H]1NC(=O)[C@H](C)N(C(=O)[C@@H](Cc2ccccc2)NC(=O)[C@@H](CCCNC(=N)N)NC(=O)[C@H](CCCCN)NC(=O)[C@H](CCCNC(=N)N)NC(=O)[C@@H](N)Cc2ccc(O)cc2)CCCC(=O)NCCCN([C@@H](C)C(N)=O)C(=O)C(Cc2ccc(O)cc2)NC(=O)[C@@H](CCCNC(=N)N)NC1=O (stereo partly drawn) [Tyr-Arg-Lys-(D)Arg-(D)Phe-AlaC3-Leu-(D)Arg-BTyr-AlaN3] (H-YRK[dR][dF][Ala(Nα-(CH2)3CO)]L[dR][ξY][Ala(Nα-(CH2)3NH)]-NH2; lactam 6-10) | 47 µM | 19 |  |
| (D)Lys-Arg-Lys-Arg-Phe-AlaC3-(D)Leu-(D)Arg-Tyr-AlaN3 | not active | 27 |  |
| (D)Lys-Arg-Lys-Arg-Phe-AlaC3-Leu-(D)Arg-(D)Tyr-AlaN3 | not active | 19 |  |
| (D)Lys-Arg-Lys-Arg-Phe-AlaC3-Leu-Arg-(D)Tyr-AlaN3 | not active | 25 |  |
| (D)Lys-Arg-Lys-Arg-Phe-AlaC3-Lys-Arg-(D)Tyr-AlaN3 | not active | 21 |  |
| (D)Tyr-Arg-Lys-Arg-Phe-AlaC3-Lys-(D)Arg-(D)Tyr-AlaN3 | not active | 22 |  |
| LIF: leukemia inhibitory factor, cytokine that shares the gp130 signal transducer |  |  | % Inhibition (relative to IL-6) (A375 cells; cytokine 1 ng/ml): 1%; % Inhibition (relative to IL-6) (A375 cells; cytokine 10 ng/ml): 2% |
| Lys-Arg-Leu-(D)Arg-(D)Phe-AlaC3-Lys-Arg-BTyr-AlaN3 | not active | 22 |  |
| Lys-GlyC2-Leu-Ile-Gln-Leu-Phe-GlyN3-Lys-Lys-NH2 (KGLIQLFGKK; not fully specified; backbone cyclization, C-amide; listed as Homo sapiens) [PTR 4041, reference compound] |  |  | Mean weight loss % [2]: −7.3%; Mean weight loss grams [2]: −2.51 grams; concentration that fully blocks IL-6 activity (B16.F10.9 melanoma cells): not active |
| leukemia inhibitory factor (LIF) (ligand) |  |  | % Inhibition (relative to IL-6) of A375 cells, LIF + LIFR at 10 ng/ml [3]: 45% |
| OSM: oncostatine M, cytokine that shares the gp130 signal transducer (protein, UniProt P13725 26-221, looked up) Oncostatin-M: AAIGSCSKEYRVLLGQLQKQTDLMQDTSRLLDPYIRIQGLDVPKLREHCRERPGAFPSEETLRGLGRRGFLQTLNATLGCVLHRLADLEQRLPKAQDLERSGLNIEDLEKLQMARPNILGLRNNIYCMAQLLDNSDTAEPTKAGRGASQPPTPTPASDAFQRKLEGCRFLHGYHRFMHSVGRVFSKWGESPNRSRR |  |  | % Inhibition (relative to IL-6) (A375 cells; cytokine 1 ng/ml): 94%; % Inhibition (relative to IL-6) (A375 cells; cytokine 10 ng/ml): 141% |
